Reference: patent publication US9028855B2, “Plant additives and uses thereof to modulate the synthesis of membrane glycerolipids in planta” (Commissariat a l'Energie Atomique et aux Energies …, priority 2009, dated 2015)
Entries after “also recorded” stand apart in the source; their conditions may differ.

Legend:
wild type seedlings = experiment: Anthocyanins content (spectrophotometric); format: in vivo, A. thaliana; set-up: key to Antho: anthocyanin content as A530 - 2.2*A652; details: accumulation of anthocyanes; +P control 46, −P 1008
Description: Anthocyanins were extracted with propanol:HCl:H2O (81:1:18) for 5 min at room temperature and 3 min at 100° C. Samples are centrifuged for 10 min at 4° C. Supernatants were collected and absorption measured at 530 nm and […]. Anthocyanin content was calculated as A530-2.2A652 (Lange et al., 1971).

A. thaliana = experiment: Root growth (primary root) of plants on high phosphate medium supplied with compound; format: in vivo; details: for Root Growth: expressed as a percentage having regard to a control, +P control 100, −P 20; for primary root growth (in words): high phosphate medium supplied with compound
Excerpt: In response to phosphate starvation, the primary root growth is inhibited (Svistoonoff et al., 2007).

[1] = tested on: phosphate transporter PHT1;4; experiment: 8′G::GUS, follow-up of the expression of the phosphate transporter PHT1;4 (GUS staining); format: in vivo, A. thaliana; details: compound added to the cultivation medium
Excerpt: 8′G cell line was obtained as follows: for the PHT1;4 promoter fusion, a 2 kb region upstream of the ORF of PHT1;4 was cloned in the vector pENTR/D-TOPO (pENTRT™/D-TOPO® Cloning Kit, ref. K2400-20, Invitrogen) and transferred to pKGWFS7 (Karimi et al., 2002) by recombination using Gateway BP (Gateway® BP Clonase® enzyme mix, ref. 11789-013, Invitrogen) and LR Clonase enzyme mixes (LR Clonase® II Plus enzyme, ref. 12538-120, Invitrogen), respectively, to produce the pPHT1;4:GUS-GFP gene fusion. This fusion was then introduced into the Arabidopsis genome via the Agrobacterium-mediated transformation system (Logemann et al., 2006).
Plants were examined for GUS activity by dipping the samples in a GUS staining solution (50 mM sodium phosphate buffer pH 7.0; 0.01% Triton X-100, 1 mM K3Fe(CN)6, 1 mM K4Fe(CN)6, 1 mg/ml 5-dromo-4-chloro-3-indolyl (3-D-GLUCURONIDE (X-Gluc A) and incubated at 37° C. over-night. After staining, the plants were fixed 2 hours in 50 mM sodium phosphate buffer pH 7.0; 1% glutaraldehyde; 4% formaldehyde.

phopholipase Dz2 = experiment: PLDz::GUS, follow-up of the expression of the gene encoding phospholipase Dz2 (GUS staining); format: in vivo, A. thaliana; details: summary over PLDz::GUS and MGD3::GUS; specific = without impact on growth or PHT1;4
Description: pPLDZ2:GUS-GFP cell line is as described by Cruz-Ramirez et al. (Cruz-Ramirez et al., 2006), and expressed a GUS-GFP fusion under the control of the pldz2 promoter. […] Plants were examined for GUS activity by dipping the samples in a GUS staining solution (50 mM sodium phosphate buffer pH 7.0; 0.01% Triton X-100, 1 mM K3Fe(CN)6, 1 mM K4Fe(CN)6, 1 mg/ml 5-dromo-4-chloro-3-indolyl (3-D-GLUCURONIDE (X-Gluc A) and incubated at 37° C. over-night. After staining, the plants were fixed 2 hours in 50 mM sodium phosphate buffer pH 7.0; 1% glutaraldehyde; 4% formaldehyde. In response to phosphate starvation, the lipid metabolism is modified (Benning and Ohta, 2005). Plants preferentially synthesize sulpho- and galacto-lipids instead of phospholipids. Several enzymes are involved in this remobilisation.

## Cc1ccc(NC=C2C(=O)CC(C)(C)CC2=O)cc1 [#1]
Wild type seedlings
  Antho: 274
A. thaliana
  Root Growth: 64 % of control
  primary root growth (in words): without altering the root growth
[1]
  PHT1;4 expression (in words, summary of analogues): induced PHT 1;4 expression

## CC1(C)CC(=O)C(=CNc2ccc(Br)cc2)C(=O)C1 [#2]
Wild type seedlings
  Antho: 258
A. thaliana
  Root Growth: 59 % of control

## CC1(C)CC(=O)C(=CNc2ccc(F)c(Cl)c2)C(=O)C1 [#3]
Wild type seedlings
  Antho: 806
A. thaliana
  Root Growth: 41 % of control

## CC1(C)CC(=O)C(=CNc2cc(Cl)cc(Cl)c2)C(=O)C1 [#4]
Wild type seedlings
  Antho: 210
A. thaliana
  Root Growth: 50 % of control

## CC1(C)CC(=O)C(=CNc2ccc(F)cc2)C(=O)C1 [#5]
Wild type seedlings
  Antho: 110
A. thaliana
  Root Growth: 73 % of control
  primary root growth (in words): without altering the root growth; also recorded: do not induce a reduction of the root growth
[1]
  PHT1;4 expression (in words, summary of analogues): induced PHT 1;4 expression; also recorded: induce expression of the Pht1;4 gene

## Cc1ccc(NC=C2C(=O)CC(C)(C)CC2=O)cc1Cl [#6]
A. thaliana
  Root Growth: 53 % of control

## Cc1cccc(NC=C2C(=O)CC(C)(C)CC2=O)c1 [#7]
Wild type seedlings
  Antho: 172
A. thaliana
  Root Growth: 75 % of control
  primary root growth (in words): without altering the root growth
[1]
  PHT1;4 expression (in words, summary of analogues): induced PHT 1;4 expression

## CC1(C)CC(=O)C(=CNc2ccc(I)cc2)C(=O)C1 [#8]
Wild type seedlings
  Antho: 37
A. thaliana
  Root Growth: 56 % of control

## Cc1ccc(NC=C2C(=O)CC(C)(C)CC2=O)c(C)c1 [#9]
Wild type seedlings
  Antho: 130
A. thaliana
  Root Growth: 71 % of control

## CC1(C)CC(=O)C(=CNc2cccc(Cl)c2)C(=O)C1 [#10]
Wild type seedlings
  Antho: 225
A. thaliana
  Root Growth: 41 % of control

## CC1(C)CC(=O)C(=CNCc2ccccn2)C(=O)C1 [#11]
Wild type seedlings
  Antho: 163
A. thaliana
  Root Growth: 63 % of control
  primary root growth (in words): without altering the root growth
[1]
  PHT1;4 expression (in words, summary of analogues): induced PHT 1;4 expression

## Cc1c(Cl)cccc1NC=C1C(=O)CC(C)(C)CC1=O [#12]
Wild type seedlings
  Antho: 850
A. thaliana
  Root Growth: 57 % of control

## CC1(C)CC(=O)C(=CNc2ccncc2)C(=O)C1 [#13]
Wild type seedlings
  Antho: 513
A. thaliana
  Root Growth: 42 % of control

## CC1(C)CC(=O)C(=CNc2ccc(F)c(F)c2)C(=O)C1 [#14]
Wild type seedlings
  Antho: 150
A. thaliana
  Root Growth: 61 % of control
  primary root growth (in words): without altering the root growth
[1]
  PHT1;4 expression (in words, summary of analogues): induced PHT 1;4 expression

## CC1(C)CC(=O)C(=CNc2ccccn2)C(=O)C1 [#15]
Wild type seedlings
  Antho: 283
A. thaliana
  Root Growth: 40 % of control

## CC1(C)CC(=O)C(=CNc2cccnc2)C(=O)C1 [#16]
Wild type seedlings
  Antho: 431
A. thaliana
  Root Growth: 40 % of control

## O=C1CC(c2ccccc2)CC(=O)C1=CNCc1ccccn1 (centres unmarked) [#17]
Wild type seedlings
  Antho: 408
A. thaliana
  Root Growth: 60 % of control

## Cc1cccc(CN/C=C2/C(=O)Nc3ccccc32)n1 [#18]
Wild type seedlings
  Antho: 195
A. thaliana
  Root Growth: 88 % of control

## Cc1ccc(NC=C2C(=O)CC(C)(C)CC2=O)nc1 [#19]
Wild type seedlings
  Antho: 193
A. thaliana
  Root Growth: 47 % of control

## CC1(C)CC(=O)C(=CNc2ncc(C(F)(F)F)cc2Cl)C(=O)C1 [#20]
Wild type seedlings
  Antho: 142
A. thaliana
  Root Growth: 72 % of control
  primary root growth (in words): without altering the root growth; also recorded: do not induce a reduction of the root growth
[1]
  PHT1;4 expression (in words, summary of analogues): induced PHT 1;4 expression; also recorded: induce expression of the Pht1;4 gene

## CC(Nc1ccc(Br)cc1)=C1C(=O)CC(C)(C)CC1=O [#21]
Wild type seedlings
  Antho: 146
A. thaliana
  Root Growth: 93 % of control
Phopholipase Dz2
  lipid metabolism: induction of PLDζ2 and/or MGD3 genes (in words): impact specifically the lipid metabolism inducing PLD[…]2 and MGD3

## O=C1CCCC(=O)C1=CNc1ccccc1 [#23]
Wild type seedlings
  Antho: 42
A. thaliana
  Root Growth: 100 % of control
Phopholipase Dz2
  lipid metabolism: induction of PLDζ2 and/or MGD3 genes (in words): specificity in lipids remodeling

## CC1(C)CC(=O)C(=CNc2cccc([N+](=O)[O-])c2)C(=O)C1 [#24]
Wild type seedlings
  Antho: 240
A. thaliana
  Root Growth: 54 % of control

## CC(=NO)c1ccc(NC=C2C(=O)CC(C)(C)CC2=O)cc1 [#25]
Wild type seedlings
  Antho: 405
A. thaliana
  Root Growth: 63 % of control

## Cc1ccnc(NS(=O)(=O)c2ccc(NC=C3C(=O)CC(C)(C)CC3=O)cc2)n1 [#26]
Wild type seedlings
  Antho: 640
A. thaliana
  Root Growth: 6 % of control

## CC1(C)CC(=O)C(=CNc2ccc(Br)cc2)C(=O)C1 [#27]
Wild type seedlings
  Antho: 43
A. thaliana
  Root Growth: 98 % of control
  primary root growth (in words): without altering the root growth; also recorded: do not induce a reduction of the root growth
[1]
  PHT1;4 expression (in words, summary of analogues): induced PHT 1;4 expression; also recorded: induce expression of the Pht1;4 gene

## O=C1CC(c2ccccc2)CC(=O)C1=CNc1ccccc1 (centres unmarked) [#28]
Wild type seedlings
  Antho: 247
A. thaliana
  Root Growth: 100 % of control
  primary root growth (in words): do not induce a reduction of the root growth
[1]
  PHT1;4 expression (in words, summary of analogues): induce expression of the Pht1;4 gene

## CC1CC(=O)C(=CNc2ccccc2)C(=O)C1 (centres unmarked) [#29]
Wild type seedlings
  Antho: 146
A. thaliana
  Root Growth: 85 % of control
Phopholipase Dz2
  lipid metabolism: induction of PLDζ2 and/or MGD3 genes (in words): impact specifically the lipid metabolism inducing PLD[…]2 and MGD3; also recorded: specificity in lipids remodeling

## CC1(C)CC(=O)C(=CNc2ccc3c(c2)OCO3)C(=O)C1 [#30]
Wild type seedlings
  Antho: 189
A. thaliana
  Root Growth: 65 % of control
Phopholipase Dz2
  lipid metabolism: induction of PLDζ2 and/or MGD3 genes (in words): impact specifically the lipid metabolism inducing PLD[…]2 and MGD3; also recorded: specificity in lipids remodeling

## CC1(C)CC(=O)C(=C(S)Nc2ccccc2)C(=O)C1 [#31]
Wild type seedlings
  Antho: 62
A. thaliana
  Root Growth: 89 % of control
Phopholipase Dz2
  lipid metabolism: induction of PLDζ2 and/or MGD3 genes (in words): impact specifically the lipid metabolism inducing PLD[…]2 and MGD3; also recorded: specificity in lipids remodeling

## CCC1CC(=O)C(=CNc2cc(F)cc(F)c2)C(=O)C1 (centres unmarked) [#32]
Wild type seedlings
  Antho: 103
A. thaliana
  Root Growth: 13 % of control

## O=C1CCCC(=O)C1=CNc1cc(Cl)cc(Cl)c1 [#33]
Wild type seedlings
  Antho: 167
A. thaliana
  Root Growth: 59 % of control

## CC(=O)c1ccc(NC=C2C(=O)CC(C)(C)CC2=O)cc1 [#34]
Wild type seedlings
  Antho: 289
A. thaliana
  Root Growth: 59 % of control

## CSc1ccc(NC=C2C(=O)CC(C)(C)CC2=O)cc1 [#35]
Wild type seedlings
  Antho: 208
A. thaliana
  Root Growth: 60 % of control

## CC1(C)CC(=O)C(=CNc2ccc(S(C)(=O)=O)cc2)C(=O)C1 [#36]
Wild type seedlings
  Antho: 235
A. thaliana
  Root Growth: 58 % of control

## COc1ccc(NC=C2C(=O)CC(C)(C)CC2=O)cc1OC [#37]
Wild type seedlings
  Antho: 204
A. thaliana
  Root Growth: 69 % of control
  primary root growth (in words): do not induce a reduction of the root growth
[1]
  PHT1;4 expression (in words, summary of analogues): induce expression of the Pht1;4 gene

## CC1(C)CC(=O)C(=CNc2ccc(O)cc2)C(=O)C1 [#38]
Wild type seedlings
  Antho: 206
A. thaliana
  Root Growth: 60 % of control

## CC1(C)CC(=O)C(=CNc2ccccc2C(N)=O)C(=O)C1 [#39]
Wild type seedlings
  Antho: 183
A. thaliana
  Root Growth: 60 % of control

## O=C1CCCC(=O)C1=CNc1ccc(Cl)c(Cl)c1 [#43]
Wild type seedlings
  Antho: 186
A. thaliana
  Root Growth: 67 % of control
  primary root growth (in words): without altering the root growth; also recorded: do not induce a reduction of the root growth
[1]
  PHT1;4 expression (in words, summary of analogues): induced PHT 1;4 expression; also recorded: induce expression of the Pht1;4 gene

## O=C1CCCC(=O)C1=CNc1ccc(Cl)cc1Cl [#44]
Wild type seedlings
  Antho: 123
A. thaliana
  Root Growth: 68 % of control
  primary root growth (in words): without altering the root growth; also recorded: do not induce a reduction of the root growth
[1]
  PHT1;4 expression (in words, summary of analogues): induced PHT 1;4 expression; also recorded: induce expression of the Pht1;4 gene

## COc1cccc(NC=C2C(=O)CC(C)(C)CC2=O)c1 [#47]
Wild type seedlings
  Antho: 324
A. thaliana
  Root Growth: 70 % of control
  primary root growth (in words): without altering the root growth; also recorded: do not induce a reduction of the root growth
[1]
  PHT1;4 expression (in words, summary of analogues): induced PHT 1;4 expression; also recorded: induce expression of the Pht1;4 gene
